Paper PMC5826973 (Frontiers in Pharmacology, 2018)

Tests used:
CyPJ = biological target: T1, CyPJ (Homo sapiens, UniProt Q9H2H8); test: Surface plasmon resonance (SPR) binding assay; details: Biacore 3000, recombinant human CyPJ immobilized on CM5 chip, 20°C, compounds 0.3–10 μM
T1 construct: made in house
T1 sequence (Q9H2H8 1-161): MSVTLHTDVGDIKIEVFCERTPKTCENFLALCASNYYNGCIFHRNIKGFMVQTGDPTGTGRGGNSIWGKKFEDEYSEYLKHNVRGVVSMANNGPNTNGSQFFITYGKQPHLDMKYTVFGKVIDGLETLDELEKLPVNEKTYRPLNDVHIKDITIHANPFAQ
Description: The binding affinity of the selected compounds to CyPJ was measured by SPR with a Biacore 3000 instrument (Biacore AB Corporation, Uppsala, Sweden) as previously described ([Guo et al., 2005]; [Chen et al., 2007]). Briefly, recombinant human CyPJ protein was immobilized on an activated sensor chip via amine coupling. CyPJ protein (10 μM) was coupled to a CM5 sensor chip surface (a carboxymethylated dextran surface; CM5 chip from Biacore, Inc., Piscataway, NJ, United States) in a buffer containing 10 mM sodium acetate (pH 4.0) using standard amine coupling chemistry according to the manufacturer’s instructions. Flow cell 1 (FC-1) was used as the control surface and flow cell 2 (FC-2) contained 9000 resonance units (RU) of CyPJ (1 RU corresponds to 1 pg of protein per mm^2). The buffer stream was passed through FC-1 and FC-2 of the bi-channel at a flow rate of 40 μl/min. Compounds to be tested were purchased from SPECS (Netherlands). All chemicals were of the highest purity available, as certified by the vendor. All compounds were stocked in 100% dimethylsulfoxide at 10 mM and diluted at graded concentrations (0.3–10 μM) with HBS-EP buffer (0.01 M HEPES buffer, pH 7.4, containing 0.15 M NaCl, 3.4 mM EDTA, and 0.005% surfactant P20) containing 1% dimethylsulfoxide. The temperature of the instrument was set to 20°C, and the flow rate was set to 40 μl/min. Each compound (50 μl) was injected sequentially. NaOH (50 mM) was used to regenerate the surface of the CM5 chip. The 1:1 Langmuir binding model was used to determine the equilibrium dissociation constant (KD). For fast interactions, the steady-state model was used to determine KD values. All experiments were carried out in triplicate.

CyPJ PPIase = biological target: T2, CyPJ PPIase (Homo sapiens, UniProt Q9H2H8); test: α-chymotrypsin-coupled PPIase assay; format: biochemical; details: for Compound IC50 for PPIase: CyPJ PPIase, substrate Suc-AAPF-pNA, 8°C, – = no inhibition detectable; for IC50: read-out: Compound IC50 for PPIase
T2 construct: made in house
T2 sequence (Q9H2H8 1-161): T1 sequence (Q9H2H8 1-161)
Description: We used an α-chymotrypsin-coupled PPIase assay, where the substrate succinyl-Ala-Ala-Pro-Phe-p-nitroanilide (Suc-AAPF-pNA) is first converted to the trans conformation by PPIase, and can then be digested by α-chymotrypsin to release chromogenic p-nitroanilide; the latter compound is then monitored with a spectrometer. Briefly, the assay was performed under 8°C in a 100 μl system. The Suc-AAPF-pNA was dissolved in the […] containing 480 mM of LiCl (working concentration: 3.0 mM). The α-chymotrypsin was dissolved in 1 mM HCl (working concentration: […]). When assayed, each test compound was diluted in 94 μl of assay buffer (50 mM HEPES, 100 mM NaCl; pH 8.0 at 0°C), and then mixed with 2 μl of CyPJ solution (5 μM). […] Three independent experiments were performed for each test compound and the respective half maximal inhibitory concentration (IC50) was calculated with OriginPro 7.5 software (OriginLab, Northampton, MA, United States).
The inhibitory effect of each compounds was determined with a standard spectrophotometric method in chymotrypsin-coupled assays with different concentrations of peptide substrate. The rate constants for the cis–trans conversion were evaluated by fitting the data to the integrated first-order rate equation through nonlinear least-square analysis.

QGY HCC cells = test: MTT-based cell proliferation assay, QGY; design: species or system human
Description: (§1) Human HCC cells SK-HEP1 and QGY; breast cancer cells HCC1954, BT474, and MDA-MB468; ovarian cancer cells SKOV3; and prostate cancer cells PC3 and LNCaP were purchased from the Cell Bank of Chinese Academy of Sciences (Shanghai, China), and cultured in T75 flasks with complete DMEM or RPMI 1640 medium (GIBCO, Invitrogen, Gaithersburg, CA, United States) supplemented with 10% FBS (Hyclone, New Zealand), and 1% penicillin/streptomycin (Solarbio, Beijing, China) at 37°C in a humidified atmosphere containing 5% CO2.
(§2) Cell proliferation was determined using methylthiazolyl diphenyl-tetrazolium bromide assay (MTT; Sigma–Aldrich). The cells were seeded onto 96-well plates in a total volume of 150 μl at a density of 3.5 × 10^4 cells/well. […] To avoid the effect of the solvent, the concentration of DMSO was less than 0.1% (v/v) in all experiments. After incubation at 37°C for 48 h, 10 μl of MTT solution (5 mg/ml) was added and continued to incubate for 4 h. Following removal of medium containing MTT, 200 μl of DMSO was added to dissolve the formazan crystals formed by live cells. Solution absorbance was measured at 490 nm with an absorbance microplate reader (BioTek, Winooski, VT, United States). The assay was repeated six times. The IC50 value was determined from plot of % viability against the dose of compounds added.

SK-HEP1 HCC cells = test: MTT-based cell proliferation assay, SK-HEP1; design: species or system human
Description: as §1, §2

[1] = Blood serum level after intraperitoneal administration; format: in vivo; details: blood serum (unpublished data)
[2] = test system: xenograft mouse tumor model; test: In vivo xenograft mouse tumor model; details: xenograft mouse tumor model (unpublished data)
[3] = test system: SKOV3 ovarian cancer cells; test: Growth inhibition, SKOV3; format: cell-based, human
Description: as §1, §2

[4] = test system: HCC1954 breast cancer cells; test: Growth inhibition, HCC1954; format: cell-based, human
Description: as §1, §2

[5] = test system: MDA-MB-468 breast cancer cells; test: Growth inhibition, MDA-MB-468; format: cell-based, human
Description: as §1, §2

[6] = test system: LNCaP prostate cancer cells; test: Growth inhibition, LNCaP; format: cell-based, human
Description: as §1, §2

[7] = test system: BT474 breast cancer cells; test: Growth inhibition, BT474; format: cell-based, human
Description: as §1, §2

[8] = test system: PC3 prostate cancer cells; test: Growth inhibition, PC3; format: cell-based, human
Description: as §1, §2

[9] = Table 4, ZX-J-19 derivatives, 48 h
[10] = Homo sapiens, SK-HEP1, Table 2, 48 h

Kd (CyPJ) | IC50 (QGY HCC cells; [9]) | IC50 (SK-HEP1 HCC cells; [9]) | Structure (SMILES) | other results
0.661 µM |  |  | COc1cc(NC(=O)COc2ccc3ccccc3c2)ccc1NC(=O)c1cc2ccccc2o1 [ZX-J-15] | Compound IC50 for PPIase (CyPJ PPIase): no inhibition
 | 82.3 µM | 76.7 µM | CC(C)(C)C(=O)Nc1ccc2nc(-c3ccco3)c(-c3ccco3)nc2c1 [ZX-J-19m] | 
 | 17.9 µM | 11.3 µM | O=C(CCl)Nc1ccc2nc(-c3ccccc3)c(-c3ccccc3)nc2c1 [ZX-J-19d] | 
0.516 µM |  |  | CC(C)OC(=O)c1ccc(NC(=O)c2ccc(COc3ccccc3Cl)o2)cc1 [ZX-J-13] | IC50 (CyPJ PPIase): 12.63 ± 0.068 µM
 | 11.3 µM | 9.89 µM | O=C(Nc1ccc2nc(-c3ccccc3)c(-c3ccccc3)nc2c1)c1ccc(Cl)cc1 [ZX-J-19g] | 
3.41 µM |  |  | CCCOC(=O)c1ccc(N2C(=O)c3ccc(C(=O)OC(C)C(=O)c4ccc(C)cc4)cc3C2=O)cc1 (stereo not shown) [ZX-J-16] | IC50 (CyPJ PPIase): 18.5 ± 0.727 µM
 | 18 µM | 17.7 µM | CCCC(=O)Nc1ccc2nc(-c3ccco3)c(-c3ccco3)nc2c1 [ZX-J-19n] | 
118 µM |  |  | CCCCOc1cccc(-c2cc(C(=O)Nc3ccc4c(c3)OCCO4)c3ccccc3n2)c1 [ZX-J-12] | IC50 (CyPJ PPIase): 12.95 ± 0.054 µM
16.7 µM |  |  | CN(C)C(=O)Nc1ccc2nc(-c3ccco3)c(-c3ccco3)nc2c1 [ZX-J-19] | IC50 (QGY HCC cells; Homo sapiens, Table 2, 48 h): 52.438 ± 0.019 µM; IC50 (CyPJ PPIase): 15.949 ± 0.012 µM; time until absorbed and accumulated in blood serum [1]: ≤ 10 min; time until declined and diminished to control levels [1]: 8 h; antitumor activity in vivo [2]: poor antitumor activity; IC50 (SK-HEP1 HCC cells; [10]): 40.44 ± 0.033 µM
 |  | 40.8 µM | CCC(=O)Nc1ccc2nc(-c3ccccc3)c(-c3ccccc3)nc2c1 [ZX-J-19i] | 
 | 127 µM | 140 µM | O=C(CCl)Nc1ccc2nc(-c3ccc[nH]3)c(-c3ccc[nH]3)nc2c1 [ZX-J-19v] | 
0.0435 µM |  |  | COc1cc(/C=N/NC(=O)c2cc3c(ccc4ccccc43)o2)ccc1OCc1ccccc1F [ZX-J-17] | Compound IC50 for PPIase (CyPJ PPIase): no inhibition
 |  | 45.7 µM | O=C(Nc1ccc2nc(-c3ccco3)c(-c3ccco3)nc2c1)c1ccccc1Cl [ZX-J-19p] | 
 | 21.4 µM | 3.51 µM | CCCC(=O)Nc1ccc2nc(-c3ccccc3)c(-c3ccccc3)nc2c1 [ZX-J-19l] | % Growth inhibition at 20 μM [3]: 90.919%; % Growth inhibition at 20 μM [4]: 91.258%; % Growth inhibition at 20 μM [5]: 90.849%; % Growth inhibition at 20 μM [6]: 91.038%; % Growth inhibition at 20 μM [7]: 90.963%; % Growth inhibition at 20 μM [8]: 91.039%
 | 27.5 µM | 40.3 µM | O=C(Nc1ccc2nc(-c3ccccc3)c(-c3ccccc3)nc2c1)c1ccccc1 [ZX-J-19h] | 
 | 26 µM | 21.6 µM | CC(C)(C)C(=O)Nc1ccc2nc(-c3ccccc3)c(-c3ccccc3)nc2c1 [ZX-J-19b] | 

Kd (CyPJ) | IC50 (QGY HCC cells; [9]) | IC50 (SK-HEP1 HCC cells; [9]) | Structure (SMILES) | other results
0.242 µM |  |  | Cc1cc(NC(=O)C(=O)NCCN2CCN(C(=O)c3ccccc3F)CC2)ccc1Br [ZX-J-18] | Compound IC50 for PPIase (CyPJ PPIase): no inhibition
0.8 µM |  |  | COc1ccc(CCNC(=O)c2ccc(C(=O)NCCc3ccc(OC)c(OC)c3)nc2)cc1OC [ZX-J-10] | Compound IC50 for PPIase (CyPJ PPIase): no inhibition
 | 44.3 µM | 43.6 µM | O=C(Nc1ccc2nc(-c3ccco3)c(-c3ccco3)nc2c1)c1ccc([N+](=O)[O-])cc1 [ZX-J-19q] | 
 | 98.4 µM | 17.3 µM | CCCCCCCC(=O)Nc1ccc2nc(-c3ccco3)c(-c3ccco3)nc2c1 [ZX-J-19o] | 
 | 32.7 µM | 14.2 µM | CC(=O)Nc1ccc2nc(-c3ccc[nH]3)c(-c3ccc[nH]3)nc2c1 [ZX-J-19u] | 
 | 37.6 µM |  | O=C(Nc1ccc2nc(-c3ccccc3)c(-c3ccccc3)nc2c1)c1ccc([N+](=O)[O-])cc1 [ZX-J-19c] | 
 | 199 µM | 7.53 µM | CC(=O)Nc1ccc2nc(-c3ccccc3)c(-c3ccccc3)nc2c1 [ZX-J-19k] | 
 | 12.3 µM | 7.5 µM | O=C(Nc1ccc2nc(-c3ccccc3)c(-c3ccccc3)nc2c1)c1cccc(Cl)c1 [ZX-J-19e] | 
 | 17.3 µM | 18.8 µM | O=C(Nc1ccc2nc(-c3ccco3)c(-c3ccco3)nc2c1)c1ccccc1 [ZX-J-19r] | 
14.5 µM |  |  | CCOC(=O)c1ccc(NC(=O)c2cc(-c3ccc(C)c(C)c3)nc3ccccc23)cc1 [ZX-J-8] | IC50 (CyPJ PPIase): 10.3 ± 0.442 µM
 |  |  | O=c1[nH]cc(F)c(=O)[nH]1 [Compound 5-FU, 5-fluorouracil, reference compound] | IC50 (QGY HCC cells; Homo sapiens, Table 2, 48 h): 238.53 ± 0.035 µM; IC50 (SK-HEP1 HCC cells; [10]): 177.24 ± 0.065 µM
 | 42.5 µM | 46.3 µM | O=C(Nc1ccc2nc(-c3ccc[nH]3)c(-c3ccc[nH]3)nc2c1)c1ccc(Cl)cc1 [ZX-J-19t] | 
 |  |  | CCCCCCCC(=O)Nc1ccc2nc(-c3ccccc3)c(-c3ccccc3)nc2c1 [ZX-J-19j, N-(2,3-diphenylquinoxalin-6-yl)octanamide] | inhibition at 20 µM ([3]; Homo sapiens, SK-OV-3): 48.1%; IC50 (QGY HCC cells; Homo sapiens, Table 4, ZX-J-19 derivatives, 48 h): 12.5 µM; inhibition at 20 µM ([4]; Homo sapiens): 64.2%; inhibition at 20 µM ([5]; Homo sapiens): 84.7%; inhibition at 20 µM ([6]; Homo sapiens): 48.1%; inhibition at 20 µM ([7]; Homo sapiens, BT-474): 84%; inhibition at 20 µM ([8]; Homo sapiens): 84.7%; IC50 (SK-HEP1 HCC cells; Homo sapiens, SK-HEP1, Table 4, ZX-J-19 derivatives, 48 h): 6.73 µM
1.29 µM |  |  | COc1ccc(NC(=O)c2ccc(COc3ccccc3Br)o2)c(OC)c1 [ZX-J-9] | IC50 (CyPJ PPIase): 8.54 ± 0.965 µM
0.0988 µM |  |  | C/C(=N/NC(=O)c1ccc(COc2ccc3c(c2)CCC3)o1)c1ccc(NC(=O)C2CCCC2)cc1 [ZX-J-11] | IC50 (CyPJ PPIase): 19.95 ± 0.025 µM
